Reference: publication PMC6905855, “Agonist-specific voltage-dependent gating of lysosomal two-pore Na^+ channels” (eLife, 2019)
Values joined by “and” are separate entries in the source; they are usually repeats but may differ in a detail not shown here. Equal entries are not always repeated. “Also recorded” adds a separate entry of the source.

Key:
[1] = tested on: surface-expressing mutant TRPML1 channels (TRPML1^4A); experiment: Whole-cell recordings of ITRPML1-4A; assay type: cell-based; settings: TRPML1-4A wc; individual cells
TPC1/2 DKO HAP1 cells = experiment: Whole-endolysosome recordings in TPC1/2 DKO HAP1 cells; assay type: biochemical, human
From the text: TCAs, with a general structure of an aromatic greasy core and an aliphatic chain containing a terminal amine, are lysosomotropic compounds that are known to be highly accumulating in the lysosomes due to proton trapping ([Beckmann et al., 2014]). We next tested the effects of LyNa-VAs in hTPC2-transfected Cos1 and HEK293 cells using whole-endolyosome patch-clamp.
Data are presented as Mean ± S.E.M (n = 3 patches). […] For panels B, D and F, individual data and Mean ± S.E.M are presented. *, p<0.05; **, p<0.01; ***, p<0.001; N.S., no significance. Figure 3—source data 1. […] Figure 3—figure supplement 1. […] Both individual data points and Mean ± S.E.M are presented (n ≥ 3 patches; also see individual data in Figure 3—figure supplement 1—source data 1). Figure 3—figure supplement 1—source data 1.
TPC1 and TPC2 CRISPR KO cells were generated in HAP1 cells using the CRISPR/Cas9 system. The TPC1 sequence (5'cttgcagtacttcagcaccc3', TPC1-sgRNA) and TPC2 sequence (5'ccccagcgtcgggctgctgc3', TPC2-sgRNA) were targeted with pSpCas9 (BB)−2A-puro vector (Addgene). HAP1 cells were co-transfected with TPC1 and TPC2-sgRNA expressing vector in the presence of Lipofectamine 2000 (In vitrogen) and selected with 2 μg/ml puromycin for 48 hr. The remaining cells were trypsinized and seeded into 96-well plate after a limiting dilution. When single cell clones were established, their genomic DNAs were extracted and amplified with following primers: TPC1-fw: 5’atggcccagacatgtgactc3’, TPC1-re: 5’ tgcctgtctccatcctctca3’; TPC2-fw: 5’tgagctgagcatgaggcaag3’, TPC2-re: 5’ aaaggacaagtggccctgag3’. The PCR amplicons were then sequenced to confirm the intended genetic disruption.
(§1) Whole-endolysosome recordings were performed on manually isolated enlarged endolysosomes ([Wang et al., 2012]). In brief, a patch pipette was pressed against a cell and quickly pulled away to slice the cell membrane. Enlarged endolysosomes were released into a dish and identified by monitoring EGFP-TPC1/2 or the mCherry-TPC1/2 fluorescence. After formation of a gigaseal between the patch pipette and the enlarged endolysosome, capacitance transients were compensated. Voltage steps of several hundred mVs with millisecond duration were then applied to break into the vacuolar membrane. The whole-endolysosome configuration was verified by the re-appearance of capacitance transients after break-in.
(§2) Data were collected using an Axopatch 200A patch clamp amplifier, Digidata 1440, and pClamp 10.2 software (Axon Instruments). Whole-endolysosome currents were digitized at 10 kHz and filtered at 2 kHz. All experiments were conducted at room temperature (21–23°C), and all recordings were analyzed with pClamp 10.2, and Origin 8.0 (OriginLab, Northampton, MA). The permeability to cations (relative to PNa) was estimated based on following equations ([Lewis, 1979]) and Erev measurement under bi-ionic conditions:(1) PX/PNa=γNa/γX{[Na^+]Luminal/[X^+]Cytoplasmic}{exp([…])} (2) PCa/PNa=γNa/γCa{[Na^+]Cytoplasmic/[4[Ca^2+]Luminal}{exp(ErevF/RT)}{1+exp(ErevF/RT)} where R, T, F, Erev, and γ are, respectively, the gas constant, absolute temperature, Faraday constant, reversal potential, and activity coefficient.

hTPC2 = molecular target: T1, hTPC2 (Homo sapiens, UniProt Q8NHX9); experiment: Whole-endolysosome recordings of ITPC2; assay type: biochemical; settings: for inactivation of ITPC2, I500ms / I10ms: @-120mV; for PX / PNa, Ca2+ / PX / PNa, K+ / PX / PNa, Na+: TPC2 WT, agonist-activated ITPC2
T1 construct: expressed in transfected cells; host or cells: Cos1 and HEK293
T1 sequence (Q8NHX9 whole entry): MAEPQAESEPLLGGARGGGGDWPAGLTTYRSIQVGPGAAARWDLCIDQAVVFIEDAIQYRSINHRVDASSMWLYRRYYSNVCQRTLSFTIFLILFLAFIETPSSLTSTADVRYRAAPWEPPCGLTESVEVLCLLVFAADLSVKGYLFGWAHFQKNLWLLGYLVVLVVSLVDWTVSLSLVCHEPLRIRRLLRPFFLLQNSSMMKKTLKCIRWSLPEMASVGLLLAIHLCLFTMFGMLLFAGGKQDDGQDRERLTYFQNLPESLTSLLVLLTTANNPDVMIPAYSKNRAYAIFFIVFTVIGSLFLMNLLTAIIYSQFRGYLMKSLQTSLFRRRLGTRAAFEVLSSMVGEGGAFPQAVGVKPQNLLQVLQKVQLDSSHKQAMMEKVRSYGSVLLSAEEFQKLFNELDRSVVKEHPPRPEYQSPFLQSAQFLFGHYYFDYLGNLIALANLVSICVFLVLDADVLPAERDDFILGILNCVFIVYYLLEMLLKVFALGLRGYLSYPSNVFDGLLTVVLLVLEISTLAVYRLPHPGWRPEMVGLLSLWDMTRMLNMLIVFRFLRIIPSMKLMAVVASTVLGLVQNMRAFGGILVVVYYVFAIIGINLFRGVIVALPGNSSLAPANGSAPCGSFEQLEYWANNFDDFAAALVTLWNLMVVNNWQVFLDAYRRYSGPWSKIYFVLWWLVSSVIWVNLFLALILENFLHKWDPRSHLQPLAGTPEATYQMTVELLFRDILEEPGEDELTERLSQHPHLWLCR

hTPC1 = molecular target: T2, hTPC1 (Homo sapiens, UniProt Q9ULQ1); experiment: Whole-endolysosome recordings of ITPC1; assay type: biochemical
T2 construct: expressed in transfected cells; host or cells: Cos1
Procedure: It was therefore of interest to explore whether TCAs/LyNa-VAs could also act on TPC1. To investigate this, we used two different voltage paradigms. […] Second, we used a tail current paradigm to measure the amplitude of the peak inward current at −120 mV following prolonged steps to various potentials (Figure 4E).
Figure 4. […] HP = 0 mV. […] Dotted lines in A indicate where the currents were measured. […] Data are presented as Mean ± S.E.M (n = 3 patches). […] (G) Normalized I-V plots of basal voltage-dependent currents in WT TPC1- and TPC1^R540I-transfected cells. […] Figure 4—source data 1. […] Figure 4—figure supplement 1. […] (A) A voltage protocol that elicited ITPC1 tail currents as shown in Figure 4E (from −140 to 100 mV with a ∆V = 20 mV, 1 s with a 10 s inter-step interval). Arrows indicate where tail currents were measured. (B) A voltage protocol that elicited ITPC1 tail currents as shown in C. […] HP = 0 mV. […] (A) Basal whole-endolysosome ITPC1 (left) or ITPC1-R540I (right) was elicited by voltage steps (−140 to +100 mV with ΔV = 20 mV) in the absence of PI(3,5)P2 in TPC1-transfected Cos1 cells ([She et al., 2019]). Tail currents were elicited at −120 mV. (B) The effects of PI(3,5)P2 (0.3 µM) on ITPC1 (left) and ITPC1-R540I (right) step currents. […] A preconditioning voltage (+80 mV, 0.1 s) was applied before voltage steps starting from −140 to 100 mV (0.5 s, ∆V = 20 mV).
All TPC1 and TPC2 mutants were generated with a site-directed mutagenesis kit (Qiagen) using EGFP- human TPC1 and TPC2 as the templates. All constructs were confirmed by DNA sequencing.
as §1
as §2, with “coefficient. The liquid junction potentials were measured and corrected as described ([Neher, 1992]).” for “coefficient.”

TPC2^N653G = tested on: T3, TPC2^N653G; experiment: Whole-endolysosome recordings of ITPC2-N653G; assay type: biochemical, human; settings: TPC2 N653G, agonist-activated current
T3 construct: expressed in transfected cells

hTPC1^R540I = tested on: T4, hTPC1^R540I; experiment: Whole-endolysosome recordings of ITPC1-R540I; assay type: biochemical, human
T4 construct: expressed in transfected cells; host or cells: Cos1

[2] = PI(3,5)P2 0.3 µM, LyNa-VA1.2 100 µM, LyNA1 300 µM, individual tests, listed as pip2

inactivation of ITPC2, I500ms / I10ms (hTPC2; [2])	inactivation of ITPC2, I500ms / I10ms (hTPC2; mean)	Rectification index of ITPC2, I+80mV/I-80mV (hTPC2; [2])	Rectification index of ITPC2, I+80mV/I-80mV (hTPC2; PI(3,5)P2 0.3 µM, LyNa-VA1.2 100 µM, LyNA1 300 µM, mean)	Rectification index of ITPC2, I+80mV/I-80mV (hTPC2; PI(3,5)P2 0.3 µM, LyNa-VA1.2 100 µM, LyNA1 300 µM, mean, listed as pip2)	PX / PNa, Ca2+ (hTPC2; individual)	PX / PNa, Na+ (hTPC2; individual)	PX / PNa, Ca2+ (hTPC2; mean)	PX / PNa, K+ (hTPC2; mean)	PX / PNa, Na+ (hTPC2; mean)	I@500ms/I@10ms (current decline at steady state) (hTPC2; voltage-step protocols, at all potentials)	effect on whole-endolysosome ITPC1 (in words) (hTPC1)	Substance	current, whole-cell ITRPML1-4A [1]	activation of ITRPML1 in TPC1/2 DKO cells (in words) (TPC1/2 DKO HAP1 cells)	voltage dependence of TPC2 activation (in words) (hTPC2)	PX / PNa, K+ (hTPC2; individual)	activation of whole-endolysosome ITPC2 (in words) (hTPC2; bath application, symmetric Na^+)	PX / PNa, K+ (TPC2^N653G; individual)	PX / PNa, K+ (TPC2^N653G; mean)	effect on ITPC1-R540I (in words) (hTPC1^R540I)
–	–	–	–	–	–	–	–	–	–	–	–	ML-SA1	4274.3 pA and 5928.6 pA	readily activated ITRPML1	–	–	–	–	–	–
1.002 and 0.9763 and 0.9931 and 0.9868	0.9895	0.8422 and 1.096 and 1.053 and 1.001	1.00 ± 0.06	0.9981	0.016 and 0.034	0.9921 and 1.104 and 1	0.022	0.05731	1.032	~1.0	large enhancement at negative potentials	PI(3,5)P2	–	–	voltage independent; also recorded: no apparent voltage-dependent activation	0.02921 and 0.09237 and 0.08877 and 0.01887	activated a large whole-endolysosome ITPC2 with linear I-V	0.5092 and 0.6027 and 0.4961 and 0.3927	0.5002	large currents at all potentials
